Experimental data from patent US20260294880A1, “COMPOSITION FOR TREATING OTOTOXIC HEARING LOSS CAUSED BY AMINOGLYCOSIDE ANTIBIOTICS” (KYUNGPOOK NATIONAL UNIVERSITY INDUSTRY-ACADEMIC COOPERATION …, priority 2023, published 2026).

Columns and labels:
Type in all cases: cell-based, ICR mice
[1] = test system: mitochondrial membrane potential of cochlear hair cells; assay: JC-1 assay of mitochondrial membrane potential in cochlear explants; settings: for red/green fluorescence ratio (mitochondrial membrane potential) after antibiotic treatment: KM, AK, or GM only
Experimental: (§1) Three-day-old ICR (Institute for Cancer Research) mice were purchased from Hyochang Science (Daegu, South Korea) for […]. Dissected cochleae were cultured in high-glucose Dulbecco's Modified Eagle's Medium (DMEM; Hyclone, Logan, UT, USA) containing 10% fetal bovine serum (Hyclone) and ampicillin (10 μg/mL; Life Technologies, Carlsbad, CA, USA) at 37° C. in a humidified atmosphere in the presence of 5% CO2. After 16 hours of culture, cochleae were first treated with 0.1 μM or 1 μM BC for 1 hour, followed by addition of one of three aminoglycoside antibiotics (1.2 mM KM, 3 mM AK, or 100 μM GM) to the culture medium. BC concentrations were optimized for each aminoglycoside (0.1 μM for KM, 1 μM for AK and GM).
The cationic fluorescent dye MitoProbe™ JC-1 (Invitrogen-Molecular Probes) was used to measure the mitochondrial membrane potential. After 30 hours of culture, the specimens were washed with PBS and stained with JC-1 (2 μM) for 2 hours at 37° C. in the presence of 5% CO2 in a darkroom. The sensitivity of the JC-1 assay was verified by adding 50 μM carbonyl [COMPOUND LEFT OUT] 3-chlorophenylhydrazone (CCCP) to untreated specimens before JC-1 staining, and then the specimens were cultured at 37° C. in the presence of 5% CO2 for 5 minutes for activation of CCCP. JC-1 fluorescence was split into red and green, and then the segmented images were converted to grayscale, followed by evaluation using ImageJ software (http://imageJ.nih.gov/ij/).

[2] = test system: cells of the organ of Corti; assay: TUNEL assay of apoptotic DNA fragmentation in cochlear explants; settings: for apoptotic DNA fragmentation / cell death induced by antibiotic: KM, AK, or GM in mouse cochlea, no BC
Experimental: as §1
To detect DNA fragmentation leading to cell death, a TUNEL assay kit (Promega, Madison, WI) was used according to the manufacturer's protocol. Specimens were fixed with 4% paraformaldehyde in PBS for 15 minutes at room temperature (RT) and treated with 0.1% PBS-Tx in 0.1% sodium citrate for 30 minutes at 37° C. Fragmented DNA from cells was stained using TUNEL working solution at 37° C. for 30 minutes. F-actin was labeled with Alexa Fluor 555-conjugated phalloidin in PBS-Tx for 3 hours at room temperature (RT) in the dark and visualized using a Zeiss Axio Imager A2 fluorescence microscope.

[3] = test system: inner hair cells (IHCs) and outer hair cells (OHCs) of the organ of Corti; assay: Phalloidin staining of stereocilia / hair cell morphology in organotypic cochlear explants; settings: for hair cell morphology / damage after antibiotic treatment / relative severity of damage, OHC versus IHC: cochlear explants, no BC; for hair cell morphology / damage after antibiotic treatment: 1.2 mM KM, 3 mM AK or 100 μM GM; for relative severity of damage, OHC versus IHC: 1.2 mM KM or 100 μM GM
Experimental: as §1
(§2) To evaluate the morphology of inner hair cells (IHCs) and outer hair cells (OHCs) of the organ of Corti, the specimens were cultured for 48 hours and fixed with 4% paraformaldehyde (PFA, pH 7.4) in PBS for 15 minutes. After washing three times with PBS, a stereociliary bundle of explants was stained with Alexa Fluor 488-or 555-conjugated phalloidin (1:1,000; Invitrogen-Molecular Probes, Eugene, OR) in PBS for 1 hour at room temperature (RT). Specimens were mounted on glass slides using Fluoromount (Sigma-Aldrich, St. Louis, MO) and visualized using an Axio Imager A2 fluorescence microscope (Carl Zeiss, Oberkochen, Germany).

[4] = test system: IHCs and OHCs (cochlear hair cells); assay: Quantification of surviving hair cells with V-shaped stereocilia in cochlear explants; settings: for IHC survival / cytotoxicity to IHC: 3 mM AK, 1.2 mM KM, 100 μM GM, no BC
Experimental: as §1, §2
[Example 5] Quantification of hair cells and statistical analysis For quantitative analysis of hair cell damage, IHCs and OHCs with intact v-shaped […] were individually counted along a 200 μm length of basilar membrane in the apical (30%), middle (50%), and basal (70%) regions of each cochlear probe. All experiments were performed independently at least three times.

[5] = test system: cleaved caspase-3 in organ of Corti; assay: Immunohistochemistry for cleaved (active) caspase-3 in cochlear explants; settings: for level of cleaved caspase-3 after antibiotic treatment: KM, AK, or GM versus untreated controls, no BC
Experimental: as §1
Immunohistochemistry and TUNEL assay for active caspase-3 were used to determine whether cell death in the organ of Corti occurred by apoptosis. Specimens were fixed with 4% PFA, kept permeabilized with 0.1% Triton X-100 in PBS (PBS-Tx) for 30 minutes at room temperature (RT), blocked with 5% normal goat serum for 1 hour at room temperature (RT), and cultured overnight with anti-caspase-3 antibody (1:1,000; Cell Signaling Technology, Bevery, MA) diluted in blocking solution.

[6] = test system: mitochondrial reactive oxygen species (ROS) in cochlear hair cells; assay: MitoSOX Red assay of mitochondrial ROS in cochlear explants
Experimental: as §1
To analyze AK or KM-induced mitochondrial oxidative stress, cochlear explants were examined by MitoSOX Red assay and JC-1 assay. Levels of mitochondrial reactive oxygen species (ROS) were detected by staining with 5 μM MitoSOX Red (Invitrogen-Molecular Probes) for 5 minutes in a humidified atmosphere at 37° C. in the presence of 5% CO2. The specimen was washed with PBS and visualized using a Zeiss Axio Imager A2 fluorescence microscope.

NCC[C@H](O)C(=O)N[C@@H]1C[C@H](N)[C@@H](O[C@H]2O[C@H](CN)[C@@H](O)[C@H](O)[C@H]2O)[C@H](O)[C@H]1O[C@H]1O[C@H](CO)[C@@H](O)[C@H](N)[C@H]1O [AK, amikacin]
red/green fluorescence ratio (mitochondrial membrane potential) after antibiotic treatment ([1]; JC-1): significant decrease in the red/green ratio along with a loss of red signal
apoptotic DNA fragmentation / cell death induced by antibiotic [2]: resulted in cell death
hair cell morphology / damage after antibiotic treatment [3]: most of their cilia disintegrated and lost, making them unrecognizable
IHC survival / cytotoxicity to IHC [4]: virtually destroyed
level of cleaved caspase-3 after antibiotic treatment [5]: significantly increased levels of cleaved caspase-3 compared to untreated controls

COc1ccc2cc3[n+](cc2c1OC)CCc1cc2c(cc1-3)OCO2 [BC, berberine chloride]
red/green fluorescence ratio (mitochondrial membrane potential) with BC ([1]; BC pretreatment, then KM, AK or GM, JC-1, n=3 per group, *P<0.05 and **P<0.01): red/green fluorescence ratio was found to increase
statistical significance of protective effect on mitochondrial membrane potential ([1]; BC pretreatment, then KM, AK or GM, n=3 per group, *P<0.05 and **P<0.01): statistically significant
reduction of apoptotic DNA fragmentation (TUNEL labeling) ([2]; BC pretreatment compared with KM, AK, or GM treatment): significant reduction by BC pretreatment to near control levels
decrease of MitoSOX Red fluorescence intensity (mitochondrial ROS) ([6]; BC pretreatment, then KM, AK or GM): significant decrease in fluorescence intensity
statistical significance of reduced integrated density of red fluorescence ([6]; BC treatment group versus AK, KM, and GM groups): statistically significant compared to the AK, KM, and GM groups
protection against stereocilia degeneration and hair cell loss ([3]; 0.1 or 1 μM BC for 1 hour before antibiotic (KM, AK, or GM), apical, middle, basal regions): alleviated stereocilia degeneration and hair cell loss in all cochlear regions
reduction of antibiotic-induced hair cell damage (surviving hair cells) ([4]; BC pretreatment (0.1 μM for KM, 1 μM for AK and GM), IHC and OHC, apical, middle and basal turns): antibiotic-induced damage was reduced to near-normal levels
cytotoxicity of BC to IHC and OHC ([4]; BC, cochlear explants): no detrimental effects on IHC or OHC
reduction of cleaved caspase-3 ([5]; BC pre-treatment before antibiotics (KM, AK, GM)): reduced cleaved caspase-3

NC[C@H]1O[C@H](O[C@H]2[C@H](O)[C@@H](O[C@H]3O[C@H](CO)[C@@H](O)[C@H](N)[C@H]3O)[C@H](N)C[C@@H]2N)[C@H](O)[C@@H](O)[C@@H]1O [KM, kanamycin]
red/green fluorescence ratio (mitochondrial membrane potential) after antibiotic treatment ([1]; JC-1): significant decrease in the red/green ratio along with a loss of red signal
apoptotic DNA fragmentation / cell death induced by antibiotic [2]: resulted in cell death
relative severity of damage, OHC versus IHC [3]: more severe in OHC than in IHC
hair cell morphology / damage after antibiotic treatment [3]: not only altered the ciliary morphology of hair cells but also disrupted cell arrangement, with induction of cell loss in a complex manner
IHC survival / cytotoxicity to IHC [4]: more resistant
level of cleaved caspase-3 after antibiotic treatment [5]: significantly increased levels of cleaved caspase-3 compared to untreated controls

gentamicin [GM]
red/green fluorescence ratio (mitochondrial membrane potential) after antibiotic treatment ([1]; JC-1): significant decrease in the red/green ratio along with a loss of red signal
apoptotic DNA fragmentation / cell death induced by antibiotic [2]: resulted in cell death
relative severity of damage, OHC versus IHC [3]: caused more severe damage to OHCs than IHCs, with loss of hair cells
IHC survival / cytotoxicity to IHC [4]: more resistant
level of cleaved caspase-3 after antibiotic treatment [5]: significantly increased levels of cleaved caspase-3 compared to untreated controls
